Like-named read-outs stand apart in the source and are kept apart here.
What was measured:
[1] = system: hepatitis C virus NS3 protease; conditions: jump dilution; cited from earlier work
saFabI = test: Progress curve analysis, saFabI; assay type: biochemical, Staphylococcus aureus; conditions: for residence time tR: progress curve analysis, saFabI system, 20 °C
[2] = target: T1, R40Q/K41N/S44L saFabI variant (Staphylococcus aureus, UniProt Q6GI75, K41N/R40Q/S44L); test: [32P]-NAD+ direct dissociation method, saFabI; assay type: binding; conditions: saFabI system
T1 sequence (Q6GI75 1-256 R40Q/K41N/S44L): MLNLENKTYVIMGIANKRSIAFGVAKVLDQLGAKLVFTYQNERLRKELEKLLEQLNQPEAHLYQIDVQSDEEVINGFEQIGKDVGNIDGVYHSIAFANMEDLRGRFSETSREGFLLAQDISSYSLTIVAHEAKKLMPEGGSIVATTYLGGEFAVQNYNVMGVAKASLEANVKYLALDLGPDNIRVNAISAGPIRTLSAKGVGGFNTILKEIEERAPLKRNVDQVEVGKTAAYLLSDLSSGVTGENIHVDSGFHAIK

[3] = target: T2, M. tuberculosis FabI (InhA) (Mycobacterium tuberculosis, UniProt P9WGR1); conditions: progress curve analysis; bound to InhA; 20 °C
[4] = target: T2, M. tuberculosis FabI (InhA)

Row | SMILES | residence time tR (saFabI) | residence time tR [2] | further results
1 | CC(C)(C)OC(=O)N[C@H]1CCCCC/C=C\[C@@H]2C[C@@]2(C(=O)NS(=O)(=O)C2CC2)NC(=O)[C@@H]2C[C@@H](OC(=O)N3Cc4cccc(F)c4C3)CN2C1=O [ITMN-191] |  |  | recovery of enzyme activity [1]: partial recovery of enzyme activity
2 | CCCCCCc1ccc(Oc2ccccc2)c(O)c1 [PT04] | 97 min | 461.5 min | 
3 | CCCCCCc1ccc(Oc2ccccc2Cl)c(O)c1 [PT91] |  |  | residence time tR [3]: 102.1 ± 11.4 min; residence time tR [4]: 148.4 ± 13.4 min
4 | CCCCCCc1ccc(Oc2ccccc2C#N)c(O)c1 [PT119] | 120.3 min | 833.3 min | difference in koff (saFabI; progress curve analysis vs direct dissociation method, inhibition of saFabI): 8 fold

Reference: paper PMC4454744 (Analytical biochemistry, 2015)
